Data from patent US9828379B2 (priority 2013, dated 2017).

Key:
[1] = target: T1, ABHD6 (Mus musculus, UniProt Q8R2Y0); experiment: biochemical; settings: in vitro competitive ABPP
T1 sequence (Q8R2Y0 1-336): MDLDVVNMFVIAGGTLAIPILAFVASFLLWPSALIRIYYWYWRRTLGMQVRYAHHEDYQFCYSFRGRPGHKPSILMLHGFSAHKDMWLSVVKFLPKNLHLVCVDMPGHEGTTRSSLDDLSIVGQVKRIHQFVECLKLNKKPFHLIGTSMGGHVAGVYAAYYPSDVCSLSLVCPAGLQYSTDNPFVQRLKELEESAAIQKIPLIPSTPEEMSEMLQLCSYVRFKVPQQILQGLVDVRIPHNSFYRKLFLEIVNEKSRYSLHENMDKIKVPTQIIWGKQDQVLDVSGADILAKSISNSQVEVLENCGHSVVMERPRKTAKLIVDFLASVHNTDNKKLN

[2] = target: T2, FAAH (Mus musculus, UniProt O08914); experiment: biochemical; settings: in vitro competitive ABPP
T2 sequence (O08914 1-579): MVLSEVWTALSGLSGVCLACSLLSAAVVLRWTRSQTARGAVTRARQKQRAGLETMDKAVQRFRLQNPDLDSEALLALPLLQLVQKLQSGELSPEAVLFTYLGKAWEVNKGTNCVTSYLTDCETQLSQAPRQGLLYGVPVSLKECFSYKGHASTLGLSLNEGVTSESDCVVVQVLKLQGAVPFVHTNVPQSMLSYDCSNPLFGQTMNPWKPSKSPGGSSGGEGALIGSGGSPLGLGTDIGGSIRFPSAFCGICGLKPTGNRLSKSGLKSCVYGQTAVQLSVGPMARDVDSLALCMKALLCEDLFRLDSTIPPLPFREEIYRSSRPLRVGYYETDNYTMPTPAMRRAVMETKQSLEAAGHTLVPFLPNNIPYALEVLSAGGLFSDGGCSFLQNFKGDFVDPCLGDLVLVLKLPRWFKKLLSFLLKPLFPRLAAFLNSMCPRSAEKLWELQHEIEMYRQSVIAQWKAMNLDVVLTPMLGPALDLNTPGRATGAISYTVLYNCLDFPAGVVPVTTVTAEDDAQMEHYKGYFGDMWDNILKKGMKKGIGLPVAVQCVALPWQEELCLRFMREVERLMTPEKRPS

[3] = target: T3, MAGL (Mus musculus, UniProt O35678); experiment: biochemical; settings: mouse; in vitro competitive ABPP; read-out: Mouse (IC50 value, nM) MAGL
T3 sequence (O35678 1-303): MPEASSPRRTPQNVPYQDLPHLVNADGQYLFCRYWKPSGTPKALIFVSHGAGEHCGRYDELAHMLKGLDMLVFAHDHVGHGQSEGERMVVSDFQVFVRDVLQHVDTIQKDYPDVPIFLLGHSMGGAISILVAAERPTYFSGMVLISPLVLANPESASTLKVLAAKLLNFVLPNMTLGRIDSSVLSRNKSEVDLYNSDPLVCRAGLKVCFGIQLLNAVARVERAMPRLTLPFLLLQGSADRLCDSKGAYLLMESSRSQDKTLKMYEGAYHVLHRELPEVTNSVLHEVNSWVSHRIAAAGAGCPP

[4] = target: T1, ABHD6; experiment: In vitro competitive activity-based protein profiling (Table 2, % inhibition at 1 μM); type: biochemical; settings: read-out: % Inhibition at 1 μM ABHD6
[5] = target: T2, FAAH; experiment: as above; type: biochemical; settings: read-out: % Inhibition at 1 μM FAAH
[6] = target: T3, MAGL; experiment: as above; type: biochemical; settings: read-out: % Inhibition at 1 μM MAGL
Method: After 30 min, FP—Rh (1.0 μL, 50 μM in DMSO) was added and the mixture was incubated for another 30 min at 37° C. Reactions were quenched with SDS loading buffer (50 μL-4×) and run on SDS-PAGE.
Cell lysates were diluted with mock proteomes for use in competitive ABPP experiments.

| SMILES | IC50 [1] | IC50 [2] | IC50 [3] | inhibition at 1 µM [4] | inhibition at 1 µM [5] | inhibition at 1 µM [6] |
| --- | --- | --- | --- | --- | --- | --- |
| Cn1cc(CN2CC3CN(C(=O)ON4C(=O)CCC4=O)CC3C2)c(-c2ccccc2)n1 (stereo not drawn) [Example 114, 2,5-Dioxopyrrolidin-1-yl 5-((1-methyl-3-phenyl-1H-pyrazol-4-yl)methyl)hexahydropyrrolo[3,4-c]pyrrole-2(1H)-carboxylate] | 1000 to 10000 nM | > 10000 nM | 100 to 1000 nM | – | – | – |
| CCn1ncc(CN2CC3CN(C(=O)OC(C(F)(F)F)C(F)(F)F)CC3C2)c1C(=O)NCc1ccccc1 (stereo not drawn) [Example 75, 1,1,1,3,3,3-Hexafluoropropan-2-yl 5-((5-(benzylcarbamoyl)-1-ethyl-1H-pyrazol-4-yl)methyl)hexahydropyrrolo[3,4-c]pyrrole-2(1H)-carboxylate] | 100 to 1000 nM | 1000 to 10000 nM | < 100 nM | > 75% | < 25% | > 75% |
| O=C(OC(C(F)(F)F)C(F)(F)F)N1CC2CN(Cc3ccc(Cl)cc3N3CC4COCC4C3)CC2C1 (stereo not drawn) [Example 208, 1,1,1,3,3,3-hexafluoropropan-2-yl 5-(4-chloro-2-(tetrahydro-1H-furo[3,4-c]pyrrol-5(3H)-yl)benzyl)hexahydropyrrolo[3,4-c]pyrrole-2(1H)-carboxylate] | 1000 to 10000 nM | 1000 to 10000 nM | 100 to 1000 nM | < 25% | < 25% | > 75% |
| O=C(ON1C(=O)CCC1=O)N1CC2CN(Cc3ccc(N4CCOCC4)cc3F)CC2C1 (stereo not drawn) [Example 79, 2,5-Dioxopyrrolidin-1-yl 5-(2-fluoro-4-morpholinobenzyl)hexahydropyrrolo[3,4-c]pyrrole-2(1H)-carboxylate] | 1000 to 10000 nM | 1000 to 10000 nM | 1000 to 10000 nM | – | – | – |
| CC(=O)NC1CCN(c2ccc(Cl)cc2CN2CC3CN(C(=O)OC(C(F)(F)F)C(F)(F)F)CC3C2)CC1 (stereo not drawn) [Example 5, 1,1,1,3,3,3-Hexafluoropropan-2-yl 5-(2-(4-acetamidopiperidin-1-yl)-5-chlorobenzyl)hexahydropyrrolo[3,4-c]pyrrole-2(1H)-carboxylate] | 1000 to 10000 nM | 1000 to 10000 nM | 100 to 1000 nM | – | – | – |
| CC(=O)NC1CN(c2ccc(Cl)cc2CN2CC3CN(C(=O)OC(C(F)(F)F)C(F)(F)F)CC3C2)C1 (stereo not drawn) [Example 7, 1,1,1,3,3,3-Hexafluoropropan-2-yl 5-(2-(3-acetamidoazetidin-1-yl)-5-chlorobenzyl)hexahydropyrrolo[3,4-c]pyrrole-2(1H)-carboxylate] | 1000 to 10000 nM | 1000 to 10000 nM | < 100 nM | – | – | – |
| CS(=O)(=O)NC1CCN(c2ccc(Cl)cc2CN2CC3CN(C(=O)OC(C(F)(F)F)C(F)(F)F)CC3C2)CC1 (stereo not drawn) [Example 6, 1,1,1,3,3,3-Hexafluoropropan-2-yl 5-(5-chloro-2-(4-(methylsulfonamido)piperidin-1-yl)benzyl)hexahydropyrrolo[3,4-c]pyrrole-2(1H)-carboxylate] | 1000 to 10000 nM | 1000 to 10000 nM | 100 to 1000 nM | – | – | – |
| O=C(OC(C(F)(F)F)C(F)(F)F)N1CC2CN(Cc3ccc(Cl)cc3N3CCOCC3)CC2C1 (stereo not drawn) [Example 18, 1,1,1,3,3,3-Hexafluoropropan-2-yl 5-[[4-chloro-2-(morpholin-4-yl)phenyl]methyl]-octahydropyrrolo[3,4-c]pyrrole-2-carboxylate] | – | – | – | 25 to 75% | 25 to 75% | > 75% |
| CC(=O)N1CCN(c2cc(F)ccc2CN2CC3CN(C(=O)ON4C(=O)CCC4=O)CC3C2)CC1 (stereo not drawn) [Example 92, 2,5-Dioxopyrrolidin-1-yl 5-[[2-(4-acetylpiperazin-1-yl)-4-fluorophenyl]methyl]-octahydropyrrolo[3,4-c]pyrrole-2-carboxylate] | – | – | – | < 25% | < 25% | < 25% |
| CC(=O)N1CCN(c2ccc(CN3CC4CN(C(=O)ON5C(=O)CCC5=O)CC4C3)c(Cl)c2)CC1 (stereo not drawn) [Example 103, 2,5-Dioxopyrrolidin-1-yl 5-[[4-(4-acetylpiperazin-1-yl)-2-chlorophenyl]methyl]-octahydropyrrolo[3,4-c]pyrrole-2-carboxylate] | – | – | – | < 25% | < 25% | < 25% |
| CC(C)n1cc(CN2CC3CN(C(=O)ON4C(=O)CCC4=O)CC3C2)c(-c2ccccc2Cl)n1 (stereo not drawn) [Example 118, 2,5-Dioxopyrrolidin-1-yl 5-[[3-(2-chlorophenyl)-1-(propan-2-yl)-1H-pyrazol-4-yl]methyl]-octahydropyrrolo[3,4-c]pyrrole-2-carboxylate] | – | – | – | 25 to 75% | < 25% | 25 to 75% |
| O=C(ON1C(=O)CCC1=O)N1CC2CN(Cc3ccc(Cl)cc3N3CCC3)CC2C1 (stereo not drawn) [Example 113, 2,5-Dioxopyrrolidin-1-yl 5-[[2-(azetidin-1-yl)-4-chlorophenyl]methyl]-octahydropyrrolo[3,4-c]pyrrole-2-carboxylate] | – | – | – | 25 to 75% | < 25% | > 75% |
| CCn1ncc(CN2CC3CN(C(=O)OC(C(F)(F)F)C(F)(F)F)CC3C2)c1C(=O)N1CCOCC1 (stereo not drawn) [Example 73, 1,1,1,3,3,3-Hexafluoropropan-2-yl 5-((1-ethyl-5-(morpholine-4-carbonyl)-1H-pyrazol-4-yl)methyl)hexahydropyrrolo[3,4-c]pyrrole-2(1H)-carboxylate] | > 10000 nM | > 10000 nM | 100 to 1000 nM | – | – | – |
| CC(C)c1ccc(CN2CC3CN(C(=O)ON4C(=O)CCC4=O)CC3C2)c(N2CCCC2)c1 (stereo not drawn) [Example 98, 2,5-Dioxopyrrolidin-1-yl 5-[[4-(propan-2-yl)-2-(pyrrolidin-1-yl)phenyl]methyl]-octahydropyrrolo[3,4-c]pyrrole-2-carboxylate] | – | – | – | < 25% | < 25% | 25 to 75% |
| O=C(ON1C(=O)CCC1=O)N1CC2CN(Cc3ccc(Cl)cc3N3CCCC3)CC2C1 (stereo not drawn) [Example 94, 2,5-Dioxopyrrolidin-1-yl 5-[[4-chloro-2-(pyrrolidin-1-yl)phenyl]methyl]-octahydropyrrolo[3,4-c]pyrrole-2-carboxylate] | – | – | – | < 25% | 25 to 75% | 25 to 75% |
| Cc1c(CN2CC3CN(C(=O)ON4C(=O)CCC4=O)CC3C2)cccc1N1CCC(NS(C)(=O)=O)CC1 (stereo not drawn) [Example 140, 2,5-dioxopyrrolidin-1-yl 5-[[3-(4-methanesulfonamidopiperidin-1-yl)-2-methylphenyl]methyl]-octahydropyrrolo[3,4-c]pyrrole-2-carboxylate] | – | – | – | < 25% | < 25% | 25 to 75% |
| CC(=O)N1CCN(c2cccc(CN3CC4CN(C(=O)ON5C(=O)CCC5=O)CC4C3)c2C)CC1 (stereo not drawn) [Example 143, 2,5-dioxopyrrolidin-1-yl 5-[[3-(4-acetylpiperazin-1-yl)-2-methylphenyl]methyl]-octahydropyrrolo[3,4-c]pyrrole-2-carboxylate] | – | – | – | < 25% | < 25% | < 25% |
| CC(C)c1ccc(CN2CC3CN(C(=O)ON4C(=O)CCC4=O)CC3C2)c(N2CCOCC2)c1 (stereo not drawn) [Example 97, 2,5-Dioxopyrrolidin-1-yl 5-[[2-(morpholin-4-yl)-4-(propan-2-yl)phenyl]methyl]-octahydropyrrolo[3,4-c]pyrrole-2-carboxylate] | – | – | – | < 25% | < 25% | < 25% |
| CC(=O)N1CCN(c2cc(C(C)C)ccc2CN2CC3CN(C(=O)ON4C(=O)CCC4=O)CC3C2)CC1 (stereo not drawn) [Example 99, 2,5-Dioxopyrrolidin-1-yl 5-[[2-(4-acetylpiperazin-1-yl)-4-(propan-2-yl)phenyl]methyl]-octahydropyrrolo[3,4-c]pyrrole-2-carboxylate] | – | – | – | < 25% | < 25% | < 25% |
